The values that follow come from US20210347780A1, “CDPK1 INHIBITORS, COMPOSITIONS, AND METHODS RELATED THERETO” (Vyera Pharmaceuticals, LLC, priority 2018, published 2021).

For this experiment, the target named is T1, T. gondii CDPK1 (tgCDPK1) (Toxoplasma gondii, UniProt Q9BJF5).
T1 sequence (Q9BJF5 1-507): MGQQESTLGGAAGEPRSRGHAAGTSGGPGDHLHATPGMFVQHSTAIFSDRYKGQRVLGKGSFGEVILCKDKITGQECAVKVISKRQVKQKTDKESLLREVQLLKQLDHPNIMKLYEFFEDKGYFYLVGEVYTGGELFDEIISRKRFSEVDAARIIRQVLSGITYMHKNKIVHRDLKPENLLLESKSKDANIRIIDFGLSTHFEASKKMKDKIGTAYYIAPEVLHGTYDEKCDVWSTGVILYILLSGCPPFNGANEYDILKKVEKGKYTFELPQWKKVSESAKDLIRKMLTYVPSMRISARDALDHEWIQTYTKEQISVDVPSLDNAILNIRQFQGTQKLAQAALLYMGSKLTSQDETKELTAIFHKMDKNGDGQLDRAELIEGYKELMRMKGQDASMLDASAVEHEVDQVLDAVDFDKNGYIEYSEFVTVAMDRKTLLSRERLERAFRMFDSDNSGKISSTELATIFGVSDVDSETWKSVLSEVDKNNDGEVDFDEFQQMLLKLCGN
In words: biochemical. As to conditions: inhibition of T. gondii CDPK1; at least three independent replicates; read-out: tgCDPK1 IC50. How it is done:
Certain of the compounds prepared as described above were assayed to determine their IC50 for inhibition of T. gondii CDPK1 (tgCDPK1). At least three independent replicates of the assay were conducted for each compound tested.
In the case of `Nc1ncnc2c1c(Oc1cc(Cl)ccn1)nn2[C@H]1C[C@@H](O)C1` [Compound 163], the IC50 (as a rule, the concentration at which inhibition is half-maximal) amounted to 18 nM.

For the compound `Nc1ncnc2c1c(Oc1cc(CO)ccn1)nn2C1CC1` [Compound 86, (2-((4-amino-1-cyclopropyl-1H-pyrazole[3,4-d]pyrimidin-3-yl)oxy)pyridin-4-yl)methanol], the IC50 worked out at 29.6 nM.

For the compound `COc1ccnc(Oc2nn([C@H]3C[C@@H](O)C3)c3ncnc(N)c23)c1` [Compound 168], the concentration for half-maximal inhibition (IC50) is 37.1 nM.

As for `Nc1ncnc2c1c(Oc1cc(C(F)(F)F)ccn1)nn2[C@H]1CC[C@H](O)CC1` [Compound 235], the IC50 is 15.9 nM.

Consider `CC(C)(C)OC(=O)N1CCCC(n2nc(Oc3cc(Cl)ccn3)c3c(N)ncnc32)C1` (stereo not drawn) [Compound 224], for which the half-inhibitory concentration (IC50) came out at 43.7 nM.

In the case of `N#Cc1cccc(Oc2nn([C@H]3C[C@H](O)C3)c3ncnc(N)c23)c1` [Compound 178], the IC50 was 79.6 nM.

Regarding `Nc1ncnc2c1c(Oc1cc(C(F)(F)F)ccn1)nn2C1CCCCC1=O` (stereo not drawn) [Compound 289], the IC50 was 98.5 nM.

In the case of `COc1ccnc(Oc2nn([C@H]3CCCC[C@H]3O)c3ncnc(N)c23)c1` (single isomer, unassigned) [Compound 286], the IC50 is 144 nM.

In the case of `Nc1ncnc2c1c(Oc1cc(C(F)(F)F)ccn1)nn2C1CCCCC1` [Compound 200], the half-maximal inhibitory concentration (IC50) was determined as 14.7 nM.

`CC(C)(C)n1nc(Oc2cc(C(F)(F)F)ccn2)c2c(N)ncnc21` [Compound 258]: the IC50 was found to be 13.9 nM.

Turning to `N#Cc1ccnc(Oc2nn(C3CCCCC3)c3ncnc(N)c23)c1` [Compound 215], the IC50 was found to be 12.3 nM.

For the compound `Nc1ncnc2c1c(Oc1cccc(C(F)(F)F)c1)nn2[C@H]1C[C@@H](O)C1` [Compound 151], the half-maximal inhibitory concentration (IC50) turned out to be 31.3 nM.

For `Nc1ncnc2c1c(Oc1cc(C(F)(F)F)ccn1)nn2[C@H]1CCCC[C@@H]1O` [191 (S,S)], the concentration for half-maximal inhibition (IC50) worked out at 125 nM.

In the case of `Nc1ncnc2c1c(Cc1cccc(Br)c1)nn2[C@H]1C[C@@H](O)C1` [Compound 131], the IC50 came to 11.4 nM.

Regarding `CC(C)(C)n1nc(Oc2cc(O)ccn2)c2c(N)ncnc21` [Compound 264], the IC50 worked out at 13.9 nM.

For the compound `CN(C)C1CCC(n2nc(Oc3cc(C(F)(F)F)ccn3)c3c(N)ncnc32)CC1` (stereo not drawn) [Compound 227], the 50% inhibitory concentration (IC50) amounted to 28.5 nM.

Consider `Nc1ncnc2c1c(Oc1cc(C(F)(F)F)ccn1)nn2CC1CC1` [Compound 186], for which the half-maximal inhibitory concentration (IC50) came out at 22.4 nM.

With `N#Cc1cccc(Cc2nn([C@H]3C[C@H](F)C3)c3ncnc(N)c23)c1` [Compound 172], the IC50 was found to be 45.9 nM.

`Nc1ncnc2c1c(Oc1cc(Cl)ccn1)nn2C1CCCC1` [Compound 201]: the IC50 was found to be 16.7 nM.

For `Nc1ncnc2c1c(Oc1cccc(C(F)(F)F)c1)nn2[C@H]1C[C@H](O)C1` [Compound 179], the concentration for half-maximal inhibition (IC50) worked out at 47.9 nM.

Consider `Nc1ncnc2c1c(Oc1cc(C(F)(F)F)ccn1)nn2[C@H]1C[C@H](O)C1` [Compound 113, (trans)-3-(4-amino-3-((4-(trifluoromethyl)pyridin-2-yl)oxy)-1H-pyrazolo[3,4-d]pyrimidin-1-yl)cyclobutan-1-ol], for which the half-maximal inhibitory concentration (IC50) was 26.5 nM.

Take `CC(C)(C)n1nc(Cc2cccc(C#N)c2)c2c(N)ncnc21` [Compound 255]: the IC50 came out at 13.4 nM.

For the compound `N#Cc1ccnc(Oc2nn(CC3CCNCC3(F)F)c3ncnc(N)c23)c1` (stereo not drawn) [Compound 263], the IC50 came to 39.2 nM.

For the compound `Nc1ncnc2c1c(Cc1cccc(F)c1)cn2[C@H]1C[C@H](O)C1` [Compound 164], the concentration for half-maximal inhibition (IC50) is 28.3 nM.

Turning to `Nc1ncnc2c1c(Oc1cc(C(F)(F)F)ccn1)nn2CC1(C(F)(F)F)CC1` [Compound 244], the 50% inhibitory concentration (IC50) was 31 nM.

Regarding `Nc1ncnc2c1c(Oc1cc(C(F)(F)F)ccn1)nn2C1CCCC1` [Compound 257], the IC50 is 23.4 nM.

Consider `CC(C)(CO)Cn1nc(Oc2cccc(Cl)c2)c2c(N)ncnc21` [Compound 265], for which the 50% inhibitory concentration (IC50) amounted to 47.9 nM.

For the compound `CC(C)(C)n1nc(Oc2cc(C(N)=O)ccn2)c2c(N)ncnc21` [Compound 260], the half-maximal inhibitory concentration (IC50) worked out at 40.5 nM.

Take `Nc1ncnc2c1c(Cc1cccc(F)c1)nn2[C@H]1C[C@H](F)C1` [Compound 161]: the half-maximal inhibitory concentration (IC50) is 14.2 nM.

On to `Nc1ncnc2c1c(Oc1cc(C(F)(F)F)ccn1)nn2C1CCC(O)C1` (stereo not drawn) [Compound 230], for which the IC50 worked out at 24.2 nM.

As for `Nc1ncnc2c1c(Oc1cc(Cl)ccn1)nn2C1CCCNC1` (stereo not drawn) [Compound 189], the IC50 was approximately 24 nM.

As for `Nc1ncnc2c1c(Oc1cc(Cl)ccn1)nn2C1CCCCC1` [Compound 214], the IC50 was determined as 4.6 nM.

Take `Nc1ncnc2c1c(Cc1cccc(Br)c1)nn2[C@H]1C[C@H](O)C1` [Compound 127]: the concentration for half-maximal inhibition (IC50) was 18.4 nM.

Turning to `CC(C)(C)n1nc(Oc2cc(C#N)ccn2)c2c(N)ncnc21` [Compound 259], the IC50 turned out to be 18.1 nM.

Regarding `Nc1ncnc2[nH]nc(Oc3cccc(Cl)c3)c12` [Compound 252], the 50% inhibitory concentration (IC50) was 77.3 nM.

Turning to `Nc1ncnc2c1c(Oc1cc(C(F)(F)F)ccn1)nn2C1(C(=O)O)CCC1` [Compound 288], the IC50 stood at 11900 nM.

Take `NC(=O)c1ccnc(Oc2nn([C@H]3C[C@H](F)C3)c3ncnc(N)c23)c1` [Compound 174]: the IC50 is 69.7 nM.

Regarding `CC(=O)Oc1ccnc(Oc2nn(C3CCC(F)(F)CC3)c3ncnc(N)c23)c1` [Compound 277], the half-maximal inhibitory concentration (IC50) was 21.5 nM.

`Nc1ncnc2c1c(Oc1cc(O)ccn1)nn2C1CC(F)C1` (stereo not drawn) [Compound 290]: the IC50 worked out at 8.7 nM.

Take `Nc1ncnc2c1c(Oc1cc(Cl)ccn1)nn2CC1CCNCC1(F)F` (stereo not drawn) [Compound 213]: the IC50 amounted to 9.7 nM.

With `Nc1ncnc2c1c(Oc1cc(C(F)(F)F)ccn1)nn2C1CCCC1` [Compound 192], the concentration for half-maximal inhibition (IC50) was 19.2 nM.

Turning to `Nc1ncnc2c1c(Oc1cc(Cl)ccn1)nn2C1CCCNC1` (stereo not drawn) [Compound 222], the IC50 stood at 24.6 nM.

In the case of `Nc1ncnc2c1c(Oc1cc(Cl)ccn1)nn2C1CCNCC1` [Compound 188], the IC50 worked out at 29.7 nM.

With `Nc1ncnc2c1c(Oc1cc(C(F)(F)F)ccn1)nn2[C@H]1C[C@@H](O)C1` [Compound 170], the IC50 stood at 38.6 nM.

For `Nc1ncnc2c1c(Oc1cc(C(F)(F)F)ccn1)nn2[C@H]1CC[C@@H](N)CC1` [Compound 239], the half-maximal inhibitory concentration (IC50) was 23.1 nM.

On to `CO[C@H]1CC[C@H](n2nc(Oc3cc(C(F)(F)F)ccn3)c3c(N)ncnc32)CC1` [Compound 237], for which the half-maximal inhibitory concentration (IC50) turned out to be 38.1 nM.

As for `Nc1ncnc2c1c(Oc1cc(C(F)(F)F)ccn1)nn2C1CC1` [Compound 159], the IC50 turned out to be 13 nM.

For `Nc1ncnc2c1c(Oc1cc(C(F)(F)F)ccn1)nn2[C@H]1CC[C@H](CO)CC1` [Compound 243], the half-maximal inhibitory concentration (IC50) turned out to be 10.3 nM.

Turning to `Nc1ncnc2c1c(Oc1cc(C(F)(F)F)ccn1)nn2C1CC2CNC1C2` (stereo not drawn) [Compound 234], the IC50 amounted to 76.7 nM.

`COc1ccnc(Oc2nn([C@@H]3CCCC[C@H]3O)c3ncnc(N)c23)c1` (single isomer, unassigned) [Compound 285]: the IC50 came out at 1400 nM.

Take `CC(C)(C)OC(=O)N1CCC(Cn2nc(Oc3cc(C(F)(F)F)ccn3)c3c(N)ncnc32)C(F)(F)C1` (stereo not drawn) [Compound 196]: the IC50 worked out at 64.8 nM.

With `Nc1ncnc2c1c(Oc1cc(C(F)(F)F)ccn1)nn2C1CCCNC1` (stereo not drawn) [Compound 195], the 50% inhibitory concentration (IC50) amounted to 56.8 nM.

In the case of “(trans)-3-(4-amino-3-((5-fluoro-1H-indol-3-yl)methyl)-1H-pyrazolo[3,4-d]pyrimidin-1-yl)cyclobutan-1-ol [Compound 154]”, the half-maximal inhibitory concentration (IC50) turned out to be 11.8 nM.

As for `Nc1ncnc2c1c(Oc1cc(C(F)(F)F)ccn1)nn2CC1CCNCC1(F)F` (stereo not drawn) [Compound 197], the IC50 worked out at 13.8 nM.

For `Nc1ncnc2c1c(Oc1cc(C(F)(F)F)ccn1)nn2CC1CCB(O)O1` (stereo not drawn) [Compound 269], the IC50 is 28.6 nM.

In the case of `Nc1ncnc2c1c(Cc1cccc(F)c1)nn2[C@H]1C[C@H](O)C1` [Compound 128], the IC50 turned out to be 28.3 nM.

For the compound `Nc1ncnc2c1c(Cc1c[nH]c3ccc(F)cc13)nn2[C@H]1C[C@H](O)C1` [Compound 184], the half-maximal inhibitory concentration (IC50) stood at 10.2 nM.

As for `Nc1ncnc2c1c(Cc1cccc(F)c1)nn2[C@H]1C[C@@H](O)C1` [Compound 132], the IC50 is 28.4 nM.

For `CC(C)(C)n1nc(Cc2c[nH]c3ccccc23)c2c(N)ncnc21` [Compound 254], the IC50 was 9 nM.

For the compound `Nc1ncnc2c1c(Oc1cccc(Cl)c1)nn2[C@H]1C[C@H](F)C1` [Compound 156], the IC50 amounted to 10 nM.

Consider `CO[C@H]1CC[C@@H](n2nc(Oc3cc(C(F)(F)F)ccn3)c3c(N)ncnc32)CC1` [Compound 238], for which the 50% inhibitory concentration (IC50) came out at 44.7 nM.

As to `Nc1ncnc2c1c(Oc1cccc(Cl)c1)nn2C1CCC1` [Compound 121, 3-(3-chlorophenoxy)-1-cyclobutyl-1H-pyrazolo[3,4-d]pyrimidin-4-amine], the IC50 was 7.41 nM.

Consider `COc1ccnc(Oc2nn([C@H]3CCCC[C@H]3O)c3ncnc(N)c23)c1` [Compound 282], for which the IC50 came to 41.3 nM.

Consider `Nc1ncnc2c1c(Cc1cccc(Cl)c1)nn2[C@H]1C[C@H](O)C1` [Compound 124, (trans)-3-(4-amino-3-(3-chlorobenzyl)-1H-pyrazolo[3,4-d]pyrimidin-1-yl)cyclobutan-1-ol], for which the half-maximal inhibitory concentration (IC50) was 8.87 nM.

As to `Nc1ncnc2c1c(Oc1cc(Cl)ccn1)nn2C1CCOC1` (stereo not drawn) [Compound 202], the IC50 amounted to 55.7 nM.

Consider `COc1ccnc(Oc2nn(CC3CC3)c3ncnc(N)c23)c1` [Compound 223], for which the IC50 was determined as 25.1 nM.
